Test results reported in ChEMBL document CHEMBL2074265, “Isolation and characterization of Caco-2 subclones expressing high levels of multidrug resistance protein efflux transporter” (Pharm Res, 2003).

Target: ATP-dependent translocase ABCB1 (Homo sapiens, UniProt P08183)
Sequence (P08183 whole entry): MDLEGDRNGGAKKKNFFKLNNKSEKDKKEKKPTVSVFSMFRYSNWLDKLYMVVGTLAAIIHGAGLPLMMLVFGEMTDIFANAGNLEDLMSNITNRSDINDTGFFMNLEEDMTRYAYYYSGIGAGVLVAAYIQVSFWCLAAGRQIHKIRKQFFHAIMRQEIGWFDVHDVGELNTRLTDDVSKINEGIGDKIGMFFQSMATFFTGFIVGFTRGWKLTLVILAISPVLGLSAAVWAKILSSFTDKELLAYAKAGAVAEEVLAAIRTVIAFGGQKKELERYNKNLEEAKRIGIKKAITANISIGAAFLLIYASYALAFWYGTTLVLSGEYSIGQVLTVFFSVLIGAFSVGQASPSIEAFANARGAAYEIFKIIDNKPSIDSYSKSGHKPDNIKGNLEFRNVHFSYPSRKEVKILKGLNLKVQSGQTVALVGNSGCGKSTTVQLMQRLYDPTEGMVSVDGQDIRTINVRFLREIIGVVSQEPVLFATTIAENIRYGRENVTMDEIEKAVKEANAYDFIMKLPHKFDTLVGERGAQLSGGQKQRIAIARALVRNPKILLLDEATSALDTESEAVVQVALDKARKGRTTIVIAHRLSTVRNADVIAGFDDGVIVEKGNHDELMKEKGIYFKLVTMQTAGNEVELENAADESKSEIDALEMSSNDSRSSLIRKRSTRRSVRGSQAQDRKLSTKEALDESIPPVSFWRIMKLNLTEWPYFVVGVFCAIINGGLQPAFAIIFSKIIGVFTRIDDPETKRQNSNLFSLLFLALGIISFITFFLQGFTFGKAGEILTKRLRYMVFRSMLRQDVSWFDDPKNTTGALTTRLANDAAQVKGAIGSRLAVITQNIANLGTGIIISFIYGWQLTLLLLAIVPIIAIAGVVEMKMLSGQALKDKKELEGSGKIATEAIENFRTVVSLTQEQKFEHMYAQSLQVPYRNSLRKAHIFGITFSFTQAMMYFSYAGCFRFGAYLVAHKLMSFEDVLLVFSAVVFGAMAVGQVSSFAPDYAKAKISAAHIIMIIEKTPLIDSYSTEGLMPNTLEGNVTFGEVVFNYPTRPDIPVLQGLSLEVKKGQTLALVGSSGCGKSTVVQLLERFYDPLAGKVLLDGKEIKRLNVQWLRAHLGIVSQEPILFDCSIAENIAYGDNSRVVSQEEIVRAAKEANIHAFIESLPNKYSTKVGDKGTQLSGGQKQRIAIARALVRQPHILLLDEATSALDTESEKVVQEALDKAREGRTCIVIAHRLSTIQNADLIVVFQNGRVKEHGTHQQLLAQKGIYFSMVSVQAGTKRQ
Description: TP_TRANSPORTER: transepithelial transport of digoxin (basal to apical) in Caco-2 cells

- Ki: 2.31 µM
SMILES: COC(=O)[C@H]1[C@H]2C[C@@H]3c4[nH]c5cc(OC)ccc5c4CCN3C[C@H]2C[C@@H](OC(=O)c2cc(OC)c(OC)c(OC)c2)[C@@H]1OC [RESERPINE]
